According to US5516908A, “1,3-dihydro-2H-imidazo-[4,5-β]quinolin-2-one derivatives and intermediates” (Janssen Pharmaceutica N.V., priority 1995, dated 1996):

Tests used:
Assay type in all cases: biochemical
Canine heart PDE III = target: T1, Canine heart PDE III (Canis lupus familiaris, UniProt A0A8I3NYE0); assay: Inhibition of Phosphodiesterase Type III (PDE III), canine heart; settings: 1.2 μM 3H-cAMP, pH 7.1, 10 min at 37° C.
T1 construct: canine and human heart phosphodiesterase PDE III; from tissue; host or cells: canine heart (muscle)
T1 sequence (A0A8I3NYE0 1-1135): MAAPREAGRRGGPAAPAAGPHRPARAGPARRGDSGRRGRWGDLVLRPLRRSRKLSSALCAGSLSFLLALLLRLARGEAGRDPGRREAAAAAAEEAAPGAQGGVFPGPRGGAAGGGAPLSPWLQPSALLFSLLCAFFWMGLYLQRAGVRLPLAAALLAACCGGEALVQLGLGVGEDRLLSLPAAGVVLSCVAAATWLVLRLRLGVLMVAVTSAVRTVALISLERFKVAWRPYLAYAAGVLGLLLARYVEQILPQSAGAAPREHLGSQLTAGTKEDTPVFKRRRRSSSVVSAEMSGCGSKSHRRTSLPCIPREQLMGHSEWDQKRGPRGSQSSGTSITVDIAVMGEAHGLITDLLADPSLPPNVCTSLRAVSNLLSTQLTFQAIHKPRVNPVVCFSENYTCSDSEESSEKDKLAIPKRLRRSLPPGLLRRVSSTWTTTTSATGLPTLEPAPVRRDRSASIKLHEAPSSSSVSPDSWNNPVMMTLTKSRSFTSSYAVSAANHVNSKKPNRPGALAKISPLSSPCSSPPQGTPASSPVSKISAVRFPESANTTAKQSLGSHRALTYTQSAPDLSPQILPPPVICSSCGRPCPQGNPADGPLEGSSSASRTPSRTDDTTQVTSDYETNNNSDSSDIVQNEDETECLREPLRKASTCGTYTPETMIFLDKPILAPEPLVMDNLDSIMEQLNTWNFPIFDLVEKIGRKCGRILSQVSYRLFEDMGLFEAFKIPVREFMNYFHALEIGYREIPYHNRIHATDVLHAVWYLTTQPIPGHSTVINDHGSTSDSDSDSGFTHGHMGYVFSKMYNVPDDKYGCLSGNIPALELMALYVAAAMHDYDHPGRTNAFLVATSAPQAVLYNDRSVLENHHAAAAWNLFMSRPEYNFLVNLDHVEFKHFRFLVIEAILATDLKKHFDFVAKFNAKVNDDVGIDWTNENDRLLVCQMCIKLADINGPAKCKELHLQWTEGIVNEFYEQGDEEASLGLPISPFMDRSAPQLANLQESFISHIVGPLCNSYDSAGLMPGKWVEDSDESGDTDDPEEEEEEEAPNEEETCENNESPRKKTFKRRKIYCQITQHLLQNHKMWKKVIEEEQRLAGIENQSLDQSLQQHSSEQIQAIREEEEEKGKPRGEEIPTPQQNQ
Description: (§1) The alleviating and/or curing effect of the instant compounds on allergic and atopic diseases was assessed by an in vitro assay system to detect an inhibiting effect on the phosphodiesterase type III in human and canine muscle cells and a similar inhibiting effect on the phosphodiesterase type IV in human mononuclear lymphocytes.
(§2) The incubation mixture (pH 7.1) (200 μl) contained 40 mM Tris, 3.75 mM 2-mercaptoethanol, 6 mM magnesium chloride, 1.2 μM ^3 H-cAMP (310 mCi/mmole) and the phosphodiesterase type III, the amount depending on the enzymatic activity.
(§3) When the effect of different compounds on phosphodiesterase activity was tested, the medium without cAMP was incubated with the compound(s) or its carrier (DMSO-1% final concentration) for 5 min. The enzymatic reaction was started by addition of ^3 H-cAMP and stopped 10 min later after transferring the tubes in a waterbath at 100° C. for 40 sec. After cooling to room temperature, alkaline phosphatase (0.25 μg/ml) was added and the mixture was left at room temperature for 20 min. The mixture was subsequently applied to a 1 ml DEAE-Sephadex A-25 column (pasteur pipet) and washed twice with 3 ml 20 mM Tris-HCl at pH 7.4. The ^3 H-labelled reaction products in the eluate were quantified by liquid scintillation counting.
(§4) The inhibiting effect of the present compounds on canine and human heart phosphodiesterase PDE III was measured at different concentrations of the instant compounds. The IC50 values were calculated graphically from the thus obtained inhibition values.

Human heart PDE III = target: T2, Human heart PDE III (Homo sapiens, UniProt Q14432); assay: Inhibition of Phosphodiesterase Type III (PDE III), human heart; settings: 1.2 μM 3H-cAMP, pH 7.1, 10 min at 37° C.
T2 construct: canine and human heart phosphodiesterase PDE III; from tissue; host or cells: human heart (muscle)
Description: as §1, §2, §3, §4

Human MNL PDE IV = assay: Inhibition of Phosphodiesterase Type IV From Human Mononuclear Lymphocytes (MNL); settings: human mononuclear lymphocyte PDE IV; in presence of 10^-4 M cGMP; 1.2 μM 3H-cAMP, pH 7.1, 10 min at 37° C.
Description: as §1
Human blood was obtained from donors that were documented before to suffer from allergic or atopic disease. 35 ml of blood was obtained from the […] veins by venipuncture and collected in 5 ml 100 mM K2 EDTA pH 7.1. 4 ml of 0.6% dextran in saline was added and the mixture was left at room temperature for 30 min. The red blood cell free supernatant was collected, layered gently on a Lymphoprep solution and centrifuged at 750 g for 15 min at 18° C. The interfase was collected, diluted with a buffer containing […], 50 mM KCl and 100 mM HEPES at pH 7.4, and centrifuged at 900 g for 10 min at 10° C. The resulting pellet was resuspended in the same buffer.
The suspension of MNLs was adjusted to 1% Triton X100 and 0.3% Brij35 and frozen in liquid N2. After 3 freeze-thawn cycles, the suspension was homogenized at 4° C. in a Polytron PT3000 (Kinematica AG) homogenizer (PT-DA 3020/2 TS) at 8000 rpm for 5×10 sec, followed by sonication at 4° C. in a Branson sonifier 250 at a frequency output of 20000 Hz, working output 40 W for 10×30 sec. The homogenate was centrifuged at 10000 g for 10 min. The resulting supernatant was used as source for PDE IV activity. The incubation mixture (pH 7.1) (200 μl) contained 40 mM Tris, 3.75 mM 2-mercapto-ethanol, 6 mM magnesium chloride, 1.2 μM ^3 H-cAMP (310 mCi/mmole) and the phosphodiesterase type IV, the amount depending on the enzymatic activity. […] To block contaminating PDE III activity, PDE IV activity was measured in the presence of 10^-4 M cGMP.
as §3
The inhibiting effect of the present compounds on human mononuclear lymphocyte phosphodiesterase PDE IV was measured at different concentrations of the instant compounds. The IC50 values were calculated graphically from the thus obtained inhibition values.

T2 sequence (Q14432 whole entry): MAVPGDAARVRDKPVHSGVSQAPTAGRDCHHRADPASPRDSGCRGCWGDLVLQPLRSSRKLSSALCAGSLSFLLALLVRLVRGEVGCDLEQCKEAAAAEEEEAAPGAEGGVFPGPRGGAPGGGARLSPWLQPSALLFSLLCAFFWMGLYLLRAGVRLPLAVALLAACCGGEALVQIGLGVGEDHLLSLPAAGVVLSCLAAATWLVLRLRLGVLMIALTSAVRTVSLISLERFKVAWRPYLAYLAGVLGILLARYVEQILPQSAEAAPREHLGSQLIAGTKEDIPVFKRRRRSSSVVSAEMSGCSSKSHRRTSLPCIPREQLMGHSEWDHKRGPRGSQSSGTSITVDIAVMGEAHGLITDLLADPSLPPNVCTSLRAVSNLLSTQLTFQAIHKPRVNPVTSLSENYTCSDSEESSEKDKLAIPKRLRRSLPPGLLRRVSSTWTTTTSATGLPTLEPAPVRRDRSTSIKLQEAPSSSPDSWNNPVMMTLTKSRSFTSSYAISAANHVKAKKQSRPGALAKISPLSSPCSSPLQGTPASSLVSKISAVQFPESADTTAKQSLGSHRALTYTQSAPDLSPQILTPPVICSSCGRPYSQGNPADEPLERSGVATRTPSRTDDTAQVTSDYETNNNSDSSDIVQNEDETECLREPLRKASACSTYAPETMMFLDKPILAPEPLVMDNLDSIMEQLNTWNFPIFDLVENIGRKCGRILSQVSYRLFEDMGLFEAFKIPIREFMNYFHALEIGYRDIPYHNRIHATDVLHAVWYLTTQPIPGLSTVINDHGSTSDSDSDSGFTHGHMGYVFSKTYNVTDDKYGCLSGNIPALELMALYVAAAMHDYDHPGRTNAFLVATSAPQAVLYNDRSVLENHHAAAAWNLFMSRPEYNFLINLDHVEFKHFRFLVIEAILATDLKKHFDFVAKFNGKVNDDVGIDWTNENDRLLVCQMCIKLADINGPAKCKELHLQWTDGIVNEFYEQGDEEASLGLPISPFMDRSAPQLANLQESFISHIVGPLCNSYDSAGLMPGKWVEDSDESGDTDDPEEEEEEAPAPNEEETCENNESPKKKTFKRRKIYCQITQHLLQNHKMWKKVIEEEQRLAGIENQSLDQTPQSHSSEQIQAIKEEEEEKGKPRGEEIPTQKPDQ

Row | SMILES | IC50 (Canine heart PDE III) [nM] | IC50 (Human heart PDE III) [nM] | IC50 (Human MNL PDE IV) [nM]
1 | O=C(c1ccccc1)c1ccc2nc3[nH]c(=O)[nH]c3cc2c1 [Compound 1, 7-benzoyl-1,3-dihydro-2H-imidazo[4,5-b]quinolin-2-one] | 10 | 42 | 5800
2 | O=C(c1ccc(F)cc1)c1ccc2nc3[nH]c(=O)[nH]c3cc2c1 [Compound 3, 7-(4-fluorobenzoyl)-1,3-dihydro-2H-imidazo[4,5-b]quinolin-2-one] | 37 | 36 | –
3 | Cc1ccc(C(=O)c2ccc3nc4[nH]c(=O)[nH]c4cc3c2)cc1 [Compound 4, 1,3-dihydro-7-(4-methylbenzoyl)-2H-imidazo[4,5-b]quinolin-2-one] | 26 | 18 | –
4 | CN(C(=O)CO/N=C(/c1ccccc1)c1ccc2nc3[nH]c(=O)[nH]c3cc2c1)C1CCCCC1 [Compound 7] | 32 | 27 | 2600
5 | CCOC(=O)CCCCO/N=C(\c1cccnc1)c1ccc2nc3[nH]c(=O)[nH]c3cc2c1 [Compound 6] | 30 | 44 | 1700
6 | O=C(c1cccnc1)c1ccc2nc3[nH]c(=O)[nH]c3cc2c1 [Compound 5, 1,3-dihydro-7-(3-pyridinylcarbonyl-2H-imidazo[4,5-b]quinolin-2-one monohydrate] | 42 | 120 | –
7 | COc1ccc(C(=O)c2ccc3nc4[nH]c(=O)[nH]c4cc3c2)cc1OC [Compound 2, 7-(3,4-dimethoxybenzoyl)-1,3-dihydro-2H-imidazo[4,5-b]quinolin-2-one] | 33 | 86 | 4500

The remaining lines, values ahead:

Row | IC50 (Canine heart PDE III) [nM] | IC50 (Human heart PDE III) [nM] | IC50 (Human MNL PDE IV) [nM] | SMILES
8 | 29 | 33 | 3600 | CCOC(=O)CCCCO/N=C(/c1cccnc1)c1ccc2nc3[nH]c(=O)[nH]c3cc2c1 [Compound 12]
9 | 26 | 39 | – | CCOC(=O)CO/N=C/c1ccc2nc3[nH]c(=O)[nH]c3cc2c1 [Compound 11]
10 | 84 | 49 | – | O=C(O)CCCCO/N=C(\c1cccnc1)c1ccc2nc3[nH]c(=O)[nH]c3cc2c1 [Compound 13, (Z)-5-[[[(2,3-dihydro-2-oxo-1H-imidazo[4,5-b]-quinolin-7-yl)(3-pyridinyl)methylene]amino]oxy]pentanoic acid]
11 | 21 | 18 | – | COc1cccc(C(=O)c2ccc3nc4[nH]c(=O)[nH]c4cc3c2)c1 [Compound 9]
12 | 14 | 17 | 490 | CN(C(=O)CO/N=C(\c1ccccc1)c1ccc2nc3[nH]c(=O)[nH]c3cc2c1)C1CCCCC1 [Compound 10, (E)-N-cyclohexyl-2-[[[(2,3-dihydro-2-oxo-1H-imidazo{4,5-b]quinolin-7-yl)phenylmethylene]amino]oxy]-N-methylacetamide]
13 | 100 | 100 | – | O=C(O)CCCCON=C(c1cccnc1)c1ccc2nc3[nH]c(=O)[nH]c3cc2c1 [Compound 14, (E+Z)-5-[[[(2,3-dihydro-2-oxo-1H-imidazo[4,5-b]quinolin-7-yl)(3-pyridinyl)methylene]amino]oxy]pentanoic acid monohydrate]
